Measurements published in patent publication US10538794B2, “Oligosaccharide libraries and methods of production” (Emory University, priority 2016, dated 2020).
“Also recorded” adds a separate entry of the source.

Tests used:
HEK293 = test: CORA: Bn-O-glycans from media of HEK293 cells, MALDI-TOF-MS; assay type: cell-based; settings: HEK293, 50 μM, 3 d
Experimental: (§1) Adherent (HEK293) and suspension (Molt-4) cells were cultured in complete media containing 50 μM Ac3GalNAc-α-Bn or vehicle (dimethyl sulfoxide (DMSO)) for 3 d. Putative Bn-O-glycans from the media were separated from larger material with a cutoff membrane, purified by C18 chromatography, permethylated and analyzed by MALDI-TOF-MS. Here as elsewhere, the permethylated nonsulfated and/or nonphosphorylated glycans were analyzed.
(§2) Compound was added to complete media, and media was collected after incubation with cells. Media was run over a 10-kDa centrifugal filter (Amicon Ultra 4, Millipore) for ˜30 min at 2,465 g, and flow-through was collected. Bn-O-glycans were subsequently purified from flow-through with a Sep-Pak 3-cc C18 cartridge (Waters) by gravity chromatography. The column was equilibrated by two washes with 2 ml of acetonitrile and four washes with 2 ml of 0.1% (vol/vol) trifluoracetic acid (TFA). Media was applied and the column was washed four times with 2 ml of 0.1% (vol/vol) TFA for each wash. […]
(§3) Dried samples were permethylated. […] Spotted: 0.5 μl of matrix (10 mg/ml […] (Sigma), 50% (vol/vol) acetonitrile, 0.1% (vol/vol) TFA) and 0.5 μl of sample on an Anchorchip target plate, air dried the spots and analyzed by MALDI-TOF-MS using an Ultraflex-II TOF-TOF system (Bruker Daltonics). […]

[1] = tested on: breast cancer cells (MDA-MB-231); test: CORA: Bn-O-glycans in media of MDA-MB-231 cells incubated with precursor, MALDI-TOF-MS; assay type: cell-based; settings: MDA-MB-231, 0-250 μM; for lowest concentration at which Bn-O-glycans with the predicted sialylated core 2 structure were observed: 3 d
Experimental: (§4) To assess whether peracetylation of Bn-α-GalNAc enhances uptake and subsequent sensitivity, breast cancer cells (MDA-MB-231) were incubated with 0-250 μM Ac3GalNAc-α-Bn or Bn-α-GalNAc for 3 d. […] Further, peracetylation of Bn-α-GalNAc was stable in complete media for at least 3 d. Thus, peracetylation improved sensitivity, and at such low concentrations potential side effects should be limited, as explored below.
To optimize conditions, MDA-MB-231 cells were cultured with 0-250 μM Ac3GalNAc-α-Bn for 2-4 d. […] Thus, CORA should be performed with low concentrations of Ac3GalNAc-α-Bn. For most subsequent studies, cells were incubated with 50 μM Ac3GalNAc-α-Bn for 3 d.
Ac3GalNAc-α-Bn or Bn-α-GalNAc was dissolved to 50 or 100 mM in DMSO and further diluted to 5-250 μM in complete media with 5% (vol/vol) FBS, except for HUVEC and human dermal fibroblast cultures, which were incubated in ATCC preformulated media. Media with compound was administered 1 d (most cells) or 2 d (HUVECs and human dermal fibroblasts) after seeding. Cells were then incubated for 2-4 d with compound before media was collected.
Compound was added to complete media, and media was collected after incubation with cells. Media was run over a 10-kDa centrifugal filter (Amicon Ultra 4, Millipore) for ˜30 min at 2,465 g, and flow-through was collected. Bn-O-glycans were subsequently purified from flow-through with a Sep-Pak 3-cc C18 cartridge (Waters) by gravity chromatography. The column was equilibrated by two washes with 2 ml of acetonitrile and four washes with 2 ml of 0.1% (vol/vol) trifluoracetic acid (TFA). Media was applied and the column was washed four times with 2 ml of 0.1% (vol/vol) TFA for each wash. Bn-O-glycans were then eluted with two 1.5-ml applications of 50% (vol/vol) acetonitrile, 0.1% (vol/vol) TFA. Eluent was divided into three fractions, concentrated by CentriVap to remove organic solvents, and lyophilized.
Dried samples were permethylated. NaOH-DMSO (200 μl) slurry was added followed by 200 μl of methyl iodide to samples. Samples were shaken for 30 min and then spun down at 5,000 g for 5 min. Supernatant was collected and chloroform extraction was performed to isolate permethylated glycans. Chloroform (500 μl) and 500 μl of water was added to supernatant. The samples were mixed and centrifuged at 5,000 g for 1 min. Two more washes were performed with 500 μl of water each before evaporating chloroform by CentriVap for 30 min. Bn-O-glycans were then resuspended in 25 or 50 μl of 50% (vol/vol) methanol. Spotted: 0.5 μl of matrix (10 mg/ml […] (Sigma), 50% (vol/vol) acetonitrile, 0.1% (vol/vol) TFA) and 0.5 μl of sample on an Anchorchip target plate, air dried the spots and analyzed by MALDI-TOF-MS using an Ultraflex-II TOF-TOF system (Bruker Daltonics). […]

Molt-4 = test: CORA: Bn-O-glycans from media of Molt-4 cells, MALDI-TOF-MS; assay type: cell-based; settings: Molt-4, 50 μM, 3 d
Experimental: as §1, §2, §3

[2] = Stability of peracetylation in complete media; assay type: physicochemical
Experimental: as §4

cells = test: CORA with the isomer Ac3GlcNAc-β-Bn: secretion of Bn-O-glycans; assay type: cell-based
Experimental: CORA is an approach for both amplifying and profiling the mucin-type O-glycome in living cells. […] For example, MS analyses of β-eliminated O-glycans from WEHI-3 cells have not identified sialyl-LeX on core 2 O-glycans, a critical component on PSGL-1 recognized by P-selectin, which binds WEHI-3 cells. […] Thus the novel structures identified are natural O-glycans, mostly present on glycoproteins at low abundance.
CORA was performed on cells with mutant or wild-type C1galt1c1 (Cosmc), a chaperone known to be essential for T-synthase activity. Only cells with functional Cosmc and active T-synthase secreted Bn-O-glycans when we administered Ac3GalNAc-α-Bn (FIG. 2A-D).
Compound was added to complete media, and media was collected after incubation with cells. Media was run over a 10-kDa centrifugal filter (Amicon Ultra 4, Millipore) for ˜30 min at 2,465 g, and flow-through was collected. Bn-O-glycans were subsequently purified from flow-through with a Sep-Pak 3-cc C18 cartridge (Waters) by gravity chromatography. […]
as §3

CC(=O)N[C@H]1[C@@H](OCc2ccccc2)O[C@H](COC(C)=O)[C@H](OC(C)=O)[C@@H]1OC(C)=O [Ac3GalNAc-α-Bn, peracetylated benzyl-α-N-acetylgalactosamine]
uptake and modification of the O-glycan precursor by glycosyltransferases (core 1- and core 2-based Bn-O-glycan compositions observed) (HEK293): efficient uptake and modification
effect of increasing concentration on Bn-O-glycan abundance ([1]; 2-4 d): shifted abundance from disialylated to monosialylated core 2
lowest concentration at which Bn-O-glycans in culture media were seen ([1]; 2 d): 5 µM
lowest concentration at which Bn-O-glycans with the predicted sialylated core 2 structure were observed [1]: 25 µM
uptake and modification of the O-glycan precursor by glycosyltransferases (core 1- and core 2-based Bn-O-glycan compositions observed) (Molt-4): efficient uptake and modification
peracetylation stable in complete media [2]: at least 3 d

CC(=O)N[C@H]1[C@H](OCc2ccccc2)O[C@H](COC(C)=O)[C@@H](OC(C)=O)[C@@H]1OC(C)=O [Ac3GlcNAc-β-Bn]
Bn-O-glycans secreted by cells incubated with the compound (cells): no glycans or a trisaccharide (Sia-Gal-GlcNAc-Bn) only; also recorded: no Bn-O-glycans or only the simple trisaccharide Neu5Ac-Gal-GlcNAc-Bn

CC(=O)N[C@H]1[C@@H](OCc2ccccc2)O[C@H](CO)[C@H](O)[C@@H]1O [Bn-α-GalNAc, reference compound]
lowest concentration at which Bn-O-glycans with the predicted sialylated core 2 structure were observed [1]: 250 µM
